Assay results: US11925629B2, “Heterocyclic inhibitors of ERK1 and ERK2 and their use in the treatment of cancer” (Asana Biosciences, LLC, priority 2015, dated 2024)
Read-outs that look alike come from different tables or passages of the source.

Columns and labels:
[1] = tested on: HCT116 (colorectal carcinoma, K Ras G13D) cells; experiment: Cell proliferation (Alamar Blue) assay, HCT116; assay type: cell-based, human
In short: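 Fluorescence read-out (ex 540 nm, em 590 nm) after 1-3 h with 1× Alamar Blue, following 72 h compound exposure at 37° C./5% CO2. Compounds tested at typically 0.0005 to 10 uM, 3-fold steps; IC50 by sigmoidal dose-response (variable slope).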

[2] = tested on: phosphorylation of RSK1(S380) (the downstream target of ERK1/2); experiment: Phospho-RSK1(S380) ELISA assay in HT-29 cells; assay type: cell-based, human; conditions: read-out: Mechanistic Cell Assay RSK1 Phos HT29 IC50
Method: Phospho-RSK1(S380) ELISA Assay
HT-29 cells (colorectal carcinoma, B-RafV600E); obtained from ATCC, USA) were seeded (60,000 cells/well) in a 96-well plate and incubated at 37° C./5% CO2 overnight and then treated with desired compound dilutions for 2 h. Medium was removed and cells were rinsed once with ice-cold 1×PBS, then 0.070 mL ice-cold 1× cell lysis buffer containing 1 mM PMSF was added to each well and the plate was incubated on a shaker for 2 h and 30 min at 4° C. The plate was then centrifuged for 20 min (×4000 rpm) at 4° C. and the supernatant was transferred to a new plate. Cell lysates were diluted with sample diluent at a ratio of 1:1. The ELISA was then carried out following the manufacturer's protocol (PathScan® phospho-RSK1(Ser380) Sandwich ELISA Kit, Cell Signaling Technologies). The plate was read at 450 nm within 30 min after adding STOP solution. The IC50 values were subsequently determined using a sigmoidal dose-response curve (variable slope) in GraphPad Prism® 5 software.

[3] = Homo sapiens, HCT-116, HCT116 cells
[4] = Homo sapiens, HT-29, HT29 cells, phospho-RSK1(S380)
[5] = Homo sapiens, HT-29, HT29 cells

SMILES | IC50 [1, 3] | IC50 [2, 4] | IC50 [2, 5] | IC50 ([1]; HCT116 cells) | IC50 ([2]; HT29 cells, phospho-RSK1(S380))
Cc1cnc(NC2CC(F)(F)C2)nc1-n1cnc(C(=O)NC(CN)c2cc(F)cc(Cl)c2)c1 (stereo not drawn) [Example 278, N-(2-amino-1-(3-chloro-5-fluorophenyl)ethyl)-1-(2-((3,3-difluorocyclobutyl)amino)-5-methylpyrimidin-4-yl)-1H-imidazole-4-carboxamide] | ≤ 100 nM | ≤ 100 nM | – | – | –
Cc1cnc(NC2CCS(=O)(=O)C2)nc1-n1cnc(C(=O)N[C@H](CO)c2cccc(Cl)c2)c1 (stereo partly drawn) [Example 246, N-((S)-1-(3-chlorophenyl)-2-hydroxyethyl)-1-(2-((1,1-dioxidotetrahydrothiophen-3-yl)amino)-5-methylpyrimidin-4-yl)-1H-imidazole-4-carboxamide] | > 2500 nM | > 2500 nM | – | – | –
Cc1cnc(NC(CO)CO)nc1-n1cnc(C(=O)N[C@H](CO)c2cccc(Cl)c2)c1 [Example 260, (S)-N-(1-(3-chlorophenyl)-2-hydroxyethyl)-1-(2-((1,3-dihydroxypropan-2-yl)amino)-5-methylpyrimidin-4-yl)-1H-imidazole-4-carboxamide] | > 2500 nM | > 2500 nM | – | – | –
Cc1cnc(N[C@H]2CCOC2)nc1-n1cnc(C(=O)NCc2cccc(C(F)(F)F)c2)c1 [Example 311, (S)-1-(5-methyl-2-((tetrahydrofuran-3-yl)amino)pyrimidin-4-yl)-N-(3-(trifluoromethyl)benzyl)-1H-imidazole-4-carboxamide] | > 2500 nM | – | 500 to 2500 nM | – | –
Cc1cnc(N[C@@H]2CCOC2)nc1-n1cnc(C(=O)N[C@H](CN)c2cccc(Cl)c2)c1 [Example 264, N-((S)-2-amino-1-(3-chlorophenyl)ethyl)-1-(5-methyl-2-(((R)-tetrahydrofuran-3-yl)amino)pyrimidin-4-yl)-1H-imidazole-4-carboxamide] | 100 to 250 nM | ≤ 100 nM | – | – | –
Cc1cnc(NC2CCOCC2)nc1-n1cnc(C(=O)NCc2ccccc2CCO)c1 [Example 94, N-(2-(2-hydroxy-ethyl)benzyl)-1-(5-methyl-2-((tetrahydro-2H-pyran-4-yl)amino)pyrimidin-4-yl)-1H-imidazole-4-carboxamide] | – | – | – | 500 to 2500 nM | 500 to 2500 nM
Cc1cnc(Nc2ccc(Oc3ccccc3)cc2)nc1-n1cnc(C(=O)N[C@H](CO)c2cccc(Cl)c2)c1 (stereo in doubt) [Example 250, N-(1-(3-chlorophenyl)-2-hydroxyethyl)-1-(5-methyl-2-((4-phenoxyphenyl)amino)pyrimidin-4-yl)-1H-imidazole-4-carboxamide] | > 2500 nM | 500 to 2500 nM | – | – | –
Cc1cnc(N[C@H]2CCOC2)nc1-n1cnc(C(=O)NCc2cc(Cl)cc(Cl)c2)c1 [Example 313, (S)-N-(3,5-dichlorobenzyl)-1-(5-methyl-2-((tetrahydrofuran-3-yl)amino)pyrimidin-4-yl)-1H-imidazole-4-carboxamide] | > 2500 nM | – | 250 to 500 nM | – | –
Cc1cnc(NC2COC2)nc1-n1cnc(C(=O)N[C@H](CN)c2cccc(Cl)c2)c1 [Example 268, (S)-N-(2-amino-1-(3-chlorophenyl)ethyl)-1-(5-methyl-2-(oxetan-3-ylamino)pyrimidin-4-yl)-1H-imidazole-4-carboxamide] | ≤ 100 nM | ≤ 100 nM | – | – | –
Cc1cnc(NC2CC=CCC2)nc1-n1cnc(C(=O)N[C@H](CN)c2cccc(Cl)c2)c1 (stereo partly drawn) [Example 292, N-((S)-2-amino-1-(3-chlorophenyl)ethyl)-1-(2-(cyclohex-3-en-1-ylamino)-5-methylpyrimidin-4-yl)-1H-imidazole-4-carboxamide] | ≤ 100 nM | ≤ 100 nM | – | – | –
Cc1cnc(NC2CCOC2)nc1-n1cnc(C(=O)NC(CN)c2cccc(Cl)c2)c1 (stereo not drawn) [Example 235, N-(2-amino-1-(3-chlorophenyl)ethyl)-1-(5-methyl-2-((tetrahydrofuran-3-yl)amino)pyrimidin-4-yl)-1H-imidazole-4-carboxamide] | 100 to 250 nM | 100 to 250 nM | – | – | –
Cc1cnc(N[C@H]2CCOC2)nc1-n1cnc(C(=O)NCc2ccc(Cl)c(Cl)c2)c1 [Example 314, (S)-N-(3,4-dichlorobenzyl)-1-(5-methyl-2-((tetrahydrofuran-3-yl)amino)pyrimidin-4-yl)-1H-imidazole-4-carboxamide] | > 2500 nM | – | 250 to 500 nM | – | –
Cc1cnc(NC2CCOCC2)nc1-n1cnc(C(=O)NC(CO)c2cccc(C(C)(C)C)c2)c1 (stereo not drawn) [Example 258, N-(1-(3-(tert-butyl)phenyl)-2-hydroxyethyl)-1-(5-methyl-2-((tetrahydro-2H-pyran-4-yl)amino)pyrimidin-4-yl)-1H-imidazole-4-carboxamide] | 500 to 2500 nM | 250 to 500 nM | – | – | –
Cc1cnc(NC2CCOCC2)nc1-n1cnc(C(=O)NCc2ccccc2CCO)c1 [Example 243, N-(2-(2-hydroxyethyl)benzyl)-1-(5-methyl-2-((tetrahydro-2H-pyran-4-yl)amino)pyrimidin-4-yl)-1H-imidazole-4-carboxamide] | – | 500 to 2500 nM | – | > 2500 nM | –
Cc1cnc(NC2CCOc3ccccc32)nc1-n1cnc(C(=O)N[C@H](CN)c2cccc(Cl)c2)c1 (stereo partly drawn) [Example 271, N-((S)-2-amino-1-(3-chlorophenyl)ethyl)-1-(2-(chroman-4-ylamino)-5-methylpyrimidin-4-yl)-1H-imidazole-4-carboxamide] | ≤ 100 nM | ≤ 100 nM | – | – | –

The next lines start with the values.

IC50 [1, 3] | IC50 [2, 4] | IC50 [2, 5] | IC50 ([1]; HCT116 cells) | IC50 ([2]; HT29 cells, phospho-RSK1(S380)) | SMILES
> 2500 nM | 250 to 500 nM | – | – | – | Cc1cnc(Nc2ccc(F)cc2Cl)nc1-n1cnc(C(=O)N[C@H](CO)c2cccc(Cl)c2)c1 [Example 241, (S)-1-(2-((2-chloro-4-fluorophenyl)amino)-5-methylpyrimidin-4-yl)-N-(1-(3-chlorophenyl)-2-hydroxyethyl)-1H-imidazole-4-carboxamide]
500 to 2500 nM | ≤ 100 nM | – | – | – | Cc1cnc(Nc2ccc(F)cc2)nc1-n1cnc(C(=O)NCc2cccc(Cl)c2CO)c1 [Example 262, N-(3-chloro-2-(hydroxymethyl)benzyl)-1-(2-((4-fluorophenyl)amino)-5-methylpyrimidin-4-yl)-1H-imidazole-4-carboxamide]
≤ 100 nM | ≤ 100 nM | – | – | – | Cc1cnc(Nc2ccc3c(c2)OCO3)nc1-n1cnc(C(=O)N[C@H](CN)c2cccc(Cl)c2)c1 [Example 266, (S)-N-(2-amino-1-(3-chlorophenyl)ethyl)-1-(2-(benzo[d][1,3]dioxol-5-ylamino)-5-methylpyrimidin-4-yl)-1H-imidazole-4-carboxamide]
500 to 2500 nM | 500 to 2500 nM | – | – | – | Cc1cnc(Nc2ccc(F)cc2)nc1-n1cnc(C(=O)N[C@@H](CN)c2cccc(Cl)c2)c1 [Example 249, (R)-N-(2-amino-1-(3-chlorophenyl)ethyl)-1-(2-((4-fluorophenyl)amino)-5-methylpyrimidin-4-yl)-1H-imidazole-4-carboxamide]
500 to 2500 nM | 250 to 500 nM | – | – | – | Cc1cccc(C(CO)NC(=O)c2cn(-c3nc(NC4CCOCC4)ncc3C)cn2)c1 (stereo not drawn) [Example 238, N-(2-hydroxy-1-(m-tolyl)ethyl)-1-(5-methyl-2-((tetrahydro-2H-pyran-4-yl)amino)pyrimidin-4-yl)-1H-imidazole-4-carboxamide]
≤ 100 nM | 100 to 250 nM | – | – | – | Cc1cnc(Nc2ccc(F)cc2)nc1-n1cnc(C(=O)N[C@H](CN)c2cccc(Cl)c2)c1 [Example 248, (S)-N-(2-amino-1-(3-chlorophenyl)ethyl)-1-(2-((4-fluorophenyl)amino)-5-methylpyrimidin-4-yl)-1H-imidazole-4-carboxamide]
